pIC50: −log10 of the molar value.
Key:
Caco2 cells [1] = assay: Cell cycle analysis by flow cytometer (PI staining), Caco2 cells; assay type: cell-based
Procedure: (§1) The results of Example 2 in cell viability hinted the effects of HCD, PG, and 5-FU on arresting cell cycle. In this example, the phase of cell cycle of Caco2 and HT-29 cells after the treatment listed in Table 1 was determined by flow cytometer. Briefly, 7×10^4 cells per well were inoculated in 12-wells plate and incubated overnight at 37° C., 5% CO2. Then, cells were treated according to the treatment listed in Table 1 by indicated time period. After treatment, cells were harvested by trypsin and fixed with 70% ethanol at −20° C. for at least 3 hr. The cells were washed in cold PBS twice and then incubated with 1 mL (v/v) staining solution (20 μg/mL propidium iodide (PI), 0.1% Triton X-100, 0.2 mg/mL Rnase) at 37° C. for 30 minutes. Lastly, cells were analyzed by flow cytometer (Cytomics™ FC500, Backman, Fullerton, Calif., USA). Data from 10,000 cells were collected for each experimental group.

HT-29 cells [2] = assay: Cell cycle analysis by flow cytometer (PI staining), HT-29 cells; assay type: cell-based
Procedure: as §1

[3] = system: mouse bearing inflammatory bowel disease (IBD), AOM/DSS induced; assay: Mouse model bearing IBD (AOM/DSS induced), body weight and H&E staining of intestine; assay type: in vivo, C57/BL6 mice
Procedure: The animal experiments were approved by the National Dong-Hwa University Animal Ethics Committee and the experimental protocols were used according to the “Guide for the Care and Use of Laboratory Animals” of National Dong-Hwa University. On day 0, C57/BL6 mice (6-8 weeks old) were weighted and injected (intraperitoneal; i.p.) with 10 mg/kg body weight of azoxymethane (AOM) and then fed with 2% Dextran sodium sulfate solution (DSS solution) via water every day for 7 days. On day 8, the 2% DSS solution was changed to normal water for another 7 days. The cycle of DSS solution and water was repeated and the induction procedure was completed on day 35.
After the establishment of IBD in the experimental mice (on day 35), the mice were injected (i.p.) with 5-FU (15 mg/kg body weight) or HCD (0.64, 1.6, or 6.4 mg/kg body weight) once every three days for additional 30 days. Then, the mice were sacrificed. The colon, spleen, liver, and kidney thereof were immediately removed, observed, and further examined by H&E staining.

HT-29 cells [4] = assay: MTT assay cell viability, HT-29 cells; assay type: cell-based
Procedure: (§2) Two cell lines were used in this study, Caco2 cells and HT-29 cells. Both of them are colorectal cancer cells. Caco2 cells and HT-29 cells were maintained in DMEM (or RPMI) supplemented with 20% or 10% fetal bovine serum (FBS; GIBCO), pH 7.4 at 37° C. with continuous circulation of 5% CO2 incubator. The medium was changed every 2 days and the cells were trypsinized using trypsin/EDTA when reaching 80%-90% confluence.
(§3) In this example, the effects of HCD, PG, and 5-FU on the viability of Caco2 cells and HT-29 cells were examined. The MTT assay was employed for this purpose. The MTT (3-(4-,5-dimethylthiazol-2-yl)-2,5-diphenyltetrazolium bromide) assay is a common colorimetric method in the field for cell viability analysis. MTT (yellow tetrazolium salt) is reduced to a purple formazan by living cells and detection to the purple formazan can be calculated as the cell viability.
(§4) Briefly, cells (Caco2 or HT-29) were seeded in 96-well plate (7×10^3 cell per well) and incubated overnight (37° C., 5% CO2).
(§5) On the other hand, in the pretreatment analysis, cells (Caco2 or HT-29) were seeded in 96-well plate (7×10^3 cell per well) and incubated overnight (37° C., 5% CO2). In according to the treatments listed in the Table 1, Cells were pre-treated by HCD or PG for 6, 12, 24, 36, or 48 hr and then were treated by 5-FU for additional 24 hr.

Caco2 cells [5] = assay: MTT assay cell viability, Caco2 cells; assay type: cell-based
Procedure: as §2, §3, §4, §5

**Q.** With CC1=CCCC2C1(C)CCC(C)C2(C)CCC1=CC(=O)OC1O (stereo not drawn) [HCD, 16-hydroxy-cleroda-3,13-dine-15,16-olide] as the compound, how does the “cell cycle arrest at sub-G1 phase vs control (in words)” value (Caco2 cells [1]; Caco2) read?
**A.** increased cell cycle arrest at sub-G1 phase

**Q.** What about the “G0/G1 (%)” value (Caco2 cells [1]; Caco2, 0.5 μM, 36 hr) of the same compound?
**A.** 43.8 ± 3.81%

**Q.** And the “G2/M (%)” value (Caco2 cells [1]; Caco2, 0.5 μM, 36 hr)?
**A.** 20.37 ± 4.24%

**Q.** And the “S (%)” value (Caco2 cells [1]; Caco2, 0.5 μM, 36 hr)?
**A.** 17.3 ± 0.44%

**Q.** What about the “Sub G1 (%)” value (Caco2 cells [1]; Caco2, 0.5 μM, 36 hr) of the same compound?
**A.** 14.4 ± 1.73%

**Q.** And the “G0/G1 (%)” value (Caco2 cells [1]; Caco2, 0.5 μM, 48 hr)?
**A.** 44.13 ± 3.26%

**Q.** What about the “G2/M (%)” value (Caco2 cells [1]; Caco2, 0.5 μM, 48 hr) of the same compound?
**A.** 21.2 ± 2.46%

**Q.** And the “S (%)” value (Caco2 cells [1]; Caco2, 0.5 μM, 48 hr)?
**A.** 15.93 ± 0.9%

**Q.** What about the “Sub G1 (%)” value (Caco2 cells [1]; Caco2, 0.5 μM, 48 hr) of the same compound?
**A.** 14.47 ± 5.05%

**Q.** And the “G0/G1 (%)” value (Caco2 cells [1]; Caco2, 2 μM, 36 hr)?
**A.** 29.73 ± 4.22 %

**Q.** What about the “G2/M (%)” value (Caco2 cells [1]; Caco2, 2 μM, 36 hr) of the same compound?
**A.** 23.73 ± 3.91%

**Q.** What about the “S (%)” value (Caco2 cells [1]; Caco2, 2 μM, 36 hr) of the same compound?
**A.** 13.03 ± 0.5%

**Q.** And the “Sub G1 (%)” value (Caco2 cells [1]; Caco2, 2 μM, 36 hr)?
**A.** 28.8 ± 4.2 %

**Q.** What about the “G0/G1 (%)” value (Caco2 cells [1]; Caco2, 2 μM, 48 hr) of the same compound?
**A.** 25.73 ± 4.63%

**Q.** And the “G2/M (%)” value (Caco2 cells [1]; Caco2, 2 μM, 48 hr)?
**A.** 22.03 ± 2.11%

**Q.** What about the “S (%)” value (Caco2 cells [1]; Caco2, 2 μM, 48 hr) of the same compound?
**A.** 11.63 ± 1.08%

**Q.** And the “Sub G1 (%)” value (Caco2 cells [1]; Caco2, 2 μM, 48 hr)?
**A.** 36.17 ± 7.48 %

**Q.** What about the “G0/G1 (%)” value (Caco2 cells [1]; Caco2, 5 μM, 36 hr) of the same compound?
**A.** 19.4 ± 1.82 %

**Q.** What about the “G2/M (%)” value (Caco2 cells [1]; Caco2, 5 μM, 36 hr) of the same compound?
**A.** 14.77 ± 0.8%

**Q.** And the “S (%)” value (Caco2 cells [1]; Caco2, 5 μM, 36 hr)?
**A.** 9.9 ± 0.98 %

**Q.** What about the “Sub G1 (%)” value (Caco2 cells [1]; Caco2, 5 μM, 36 hr) of the same compound?
**A.** 51.77 ± 1.65 %

**Q.** What about the “G0/G1 (%)” value (Caco2 cells [1]; Caco2, 5 μM, 48 hr) of the same compound?
**A.** 15.67 ± 6.25 %

**Q.** What about the “G2/M (%)” value (Caco2 cells [1]; Caco2, 5 μM, 48 hr) of the same compound?
**A.** 12.9 ± 0.87%

**Q.** What about the “S (%)” value (Caco2 cells [1]; Caco2, 5 μM, 48 hr) of the same compound?
**A.** 9.87 ± 0.55%

**Q.** What about the “Sub G1 (%)” value (Caco2 cells [1]; Caco2, 5 μM, 48 hr) of the same compound?
**A.** 54.2 ± 0.62 %

**Q.** And the “G2/M phase after pre-treatment then 5-FU (in words)” value (Caco2 cells [1]; Caco2, 12 and 24 hr pretreatment of 1 or 2 μM, then 5-FU)?
**A.** decreased

**Q.** What about the “cell cycle arrest at sub-G1 phase vs control (in words)” value (HT-29 cells [2]; HT-29) of the same compound?
**A.** increased cell cycle arrest at sub-G1 phase

**Q.** And the “G0/G1 (%)” value (HT-29 cells [2]; HT-29, 0.5 μM, 24 hr)?
**A.** 82.9 ± 0.849 %

**Q.** What about the “G2/M (%)” value (HT-29 cells [2]; HT-29, 0.5 μM, 24 hr) of the same compound?
**A.** 8.2 ± 0 %

**Q.** And the “S (%)” value (HT-29 cells [2]; HT-29, 0.5 μM, 24 hr)?
**A.** 3.3 ± 0.424 %

**Q.** What about the “Sub G1 (%)” value (HT-29 cells [2]; HT-29, 0.5 μM, 24 hr) of the same compound?
**A.** 4.35 ± 0.495%

**Q.** What about the “G0/G1 (%)” value (HT-29 cells [2]; HT-29, 0.5 μM, 36 hr) of the same compound?
**A.** 59.25 ± 0.54%

**Q.** And the “G2/M (%)” value (HT-29 cells [2]; HT-29, 0.5 μM, 36 hr)?
**A.** 14.25 ± 1.01 %

**Q.** What about the “S (%)” value (HT-29 cells [2]; HT-29, 0.5 μM, 36 hr) of the same compound?
**A.** 15.85 ± 1.68%

**Q.** And the “Sub G1 (%)” value (HT-29 cells [2]; HT-29, 0.5 μM, 36 hr)?
**A.** 7.7 ± 0.81%

**Q.** And the “G0/G1 (%)” value (HT-29 cells [2]; HT-29, 2 μM, 24 hr)?
**A.** 33.9 ± 1.414 %

**Q.** What about the “G2/M (%)” value (HT-29 cells [2]; HT-29, 2 μM, 24 hr) of the same compound?
**A.** 22 ± 1.414%

**Q.** And the “S (%)” value (HT-29 cells [2]; HT-29, 2 μM, 24 hr)?
**A.** 17.95 ± 0.212%

**Q.** And the “Sub G1 (%)” value (HT-29 cells [2]; HT-29, 2 μM, 24 hr)?
**A.** 20.7 ± 0.707 %

**Q.** And the “G0/G1 (%)” value (HT-29 cells [2]; HT-29, 2 μM, 36 hr)?
**A.** 35.95 ± 1.34 %

**Q.** What about the “G2/M (%)” value (HT-29 cells [2]; HT-29, 2 μM, 36 hr) of the same compound?
**A.** 9.05 ± 1.485 %

**Q.** What about the “S (%)” value (HT-29 cells [2]; HT-29, 2 μM, 36 hr) of the same compound?
**A.** 7.8 ± 0.14 %

**Q.** What about the “Sub G1 (%)” value (HT-29 cells [2]; HT-29, 2 μM, 36 hr) of the same compound?
**A.** 43.95 ± 3.89 %

**Q.** And the “G0/G1 (%)” value (HT-29 cells [2]; HT-29, 5 μM, 24 hr)?
**A.** 27.5 ± 4.808%

**Q.** And the “G2/M (%)” value (HT-29 cells [2]; HT-29, 5 μM, 24 hr)?
**A.** 23.5 ± 2.97%

**Q.** And the “S (%)” value (HT-29 cells [2]; HT-29, 5 μM, 24 hr)?
**A.** 15.1 ± 2.546%

**Q.** And the “Sub G1 (%)” value (HT-29 cells [2]; HT-29, 5 μM, 24 hr)?
**A.** 22.95 ± 7.99 %

**Q.** What about the “G0/G1 (%)” value (HT-29 cells [2]; HT-29, 5 μM, 36 hr) of the same compound?
**A.** 16.4 ± 4.95 %

**Q.** And the “G2/M (%)” value (HT-29 cells [2]; HT-29, 5 μM, 36 hr)?
**A.** 11.15 ± 1.20 %

**Q.** What about the “S (%)” value (HT-29 cells [2]; HT-29, 5 μM, 36 hr) of the same compound?
**A.** 7.5 ± 1.13 %

**Q.** What about the “Sub G1 (%)” value (HT-29 cells [2]; HT-29, 5 μM, 36 hr) of the same compound?
**A.** 62 ± 6.93 %

**Q.** What about the “cell cycle phases after pre-treatment then 5-FU (in words)” value (HT-29 cells [2]; HT-29, pre-treatment, then 5-FU) of the same compound?
**A.** increase of sub G1 phase and decrease of G2/M phase

**Q.** And the “intestine villus arrangement (H&E staining)” value (from here on “intestine villus arrangement”) ([3]; 0.64 mg/kg body weight i.p.)?
**A.** irregular arrangement of villus

**Q.** And the “lymph node (H&E staining)” value ([3]; 0.64 mg/kg body weight i.p.)?
**A.** not infiltrated into muscle mucosa layer

**Q.** What about the body weight ([3]; 0.64 mg/kg body weight i.p. once every three days, 30 days) of the same compound?
**A.** initially reduced

**Q.** What about the “intestine villus arrangement” value ([3]; 1.6 mg/kg body weight i.p.) of the same compound?
**A.** arranged in neat rows nearly as seen in the control mice

**Q.** What about the “lymph node (H&E staining)” value ([3]; 1.6 mg/kg body weight i.p.) of the same compound?
**A.** not infiltrated into muscle mucosa layer

**Q.** What about the “intestine villus arrangement” value ([3]; 6.4 mg/kg body weight i.p.) of the same compound?
**A.** arranged in neat rows nearly as seen in the control mice

**Q.** And the “lymph node (H&E staining)” value ([3]; 6.4 mg/kg body weight i.p.)?
**A.** not infiltrated into muscle mucosa layer

**Q.** And the “effect of pre-treating on efficacy of 5-FU in the subsequent treatment (MTT)” value (HT-29 cells [4]; HT-29, pre-treatment 6-48 hr, then 5-FU 2 μM 24 hr)?
**A.** significantly enhanced the efficacy of 5-FU

**Q.** What about the pIC50 (HT-29 cells [4]; HT-29 cells, 36 hr treatment) of the same compound?
**A.** 5.30

**Q.** And the “effect of pre-treating on efficacy of 5-FU in the subsequent treatment (MTT)” value (Caco2 cells [5]; Caco2, pre-treatment 6-48 hr, then 5-FU 2 μM 24 hr)?
**A.** significantly enhanced the efficacy of 5-FU

**Q.** What about the pIC50 (Caco2 cells [5]; Caco2 cells, 48 hr treatment) of the same compound?
**A.** 5.30

From patent US20150366836A1, “METHOD AND PHARMACEUTICAL COMPOSITION FOR TREATING COLORECTAL CANCER” (National Dong Hua University, priority 2014, published 2015)
